Experimental findings from ChEMBL document CHEMBL1201862, “PubChem BioAssay data set” (2004) are described below.

Experiment in all cases: NCI tumour cell line growth inhibition, 48 h
For experiment [1], the system named is ACHN.
Experiment [2] concerns COLO 205.
Experiment [3] concerns HCC 2998.
Experiment [4] concerns HCT-15.
In experiment [5] the test system is HOP-92.
The test system of experiment [6] is HT-29.
The subject of experiment [7] is Malme-3M.
In experiment [8] the test system is NCI-H23.
The subject of experiment [9] is NCI-H522.
For experiment [10], the system named is OVCAR-3.
Experiment [11] relates to RPMI-8226.
Experiment [12] concerns SF-268.
Experiment [13] concerns SF-539.
Experiment [14] relates to SK-MEL-28.
Experiment [15] concerns SK-MEL-2.
Experiment [16] deals with SK-OV-3.
Experiment [17] has as its system TK-10.
In experiment [18] the test system is UACC-62.

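Interpolation was linear, between the two tested concentrations surrounding the appropriate level; five concentrations were tested over 48 hours in 96-well plates. GI50 = concentration required for 50% inhibition of growth.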 The source made the active and inactive calls. No stated cut-off is given here; in the data, active = GI50 up to about 1.1 µM and inactive = higher.

Regarding `N#CC1C(=O)NC(=O)C1=O` (configuration not stated), the GI50 in [1] was > 100 µM (inactive); in experiment [2], > 100 µM (inactive); in experiment [3], > 100 µM (inactive); in experiment [4], > 100 µM; in experiment [5], > 100 µM (inactive); in experiment [6], > 100 µM (inactive). Also, the GI50 in experiment [7], in experiment [8], in experiment [9], in [10], in [11] and in experiment [12] was > 100 µM (inactive) throughout. The GI50 in experiment [13], in experiment [14], in [15], in experiment [16], in [17] and in [18] was > 100 µM (inactive) each time.
`Cc1cc(NS(=O)(=O)c2ccc(NC(=O)c3cccc4c(=O)c5ccccc5[nH]c34)cc2)no1`: the GI50 in experiment [1] was 65.6 µM (inactive); in experiment [2] it was 50.5 µM (inactive); in [3], 36.5 µM (inactive); in [4], 66.7 µM; in experiment [5], 29.5 µM (inactive); in experiment [6] it was 43.1 µM (inactive). Moreover, the GI50 was 63.1 µM (inactive) in experiment [7]; 60.7 µM (inactive) in experiment [8]; 14.2 µM (inactive) in experiment [9]; 29.4 µM (inactive) in experiment [10]; 33.8 µM (inactive) in experiment [11]; 30.5 µM (inactive) in experiment [12]. Moreover, the GI50 was 28.9 µM (inactive) in experiment [13]; 41.2 µM (inactive) in [14]; 34.7 µM (inactive) in [15]; 14.9 µM (inactive) in [16]; 40.2 µM (inactive) in experiment [17]; 26.1 µM (inactive) in [18].
With `CCCCN/C(=N/C#N)NCc1ccccc1`, the GI50 in experiment [1] was > 100 µM (inactive); in experiment [2], > 100 µM (inactive); in experiment [3] it was 88.5 µM (inactive); in [4] it was > 100 µM; in experiment [5] it was > 100 µM (inactive); in [6] it was > 100 µM (inactive). The GI50 in experiment [7], in [8], in experiment [9], in experiment [10], in [11] and in [12] was > 100 µM (inactive) throughout. In addition, the GI50 in [13], in experiment [14], in [15], in experiment [16], in experiment [17] and in experiment [18] was > 100 µM (inactive) in each case.
As to `O=CN/C=C/c1ccc(O)c(O)c1`, the GI50 in experiment [1] was > 100 µM (inactive); in experiment [2] it was > 100 µM (inactive); in [3] it was > 100 µM (inactive); in [4], > 100 µM; in experiment [5], > 100 µM (inactive); in experiment [6] it was > 100 µM (inactive). The GI50 in [7] was > 100 µM (inactive); in experiment [8], > 100 µM (inactive); in experiment [9] it was 52.1 µM (inactive); in experiment [10] it was > 100 µM (inactive); in [11], > 100 µM (inactive); in experiment [12], > 100 µM (inactive). Also, the GI50 in [13], in experiment [14], in [15], in experiment [16], in experiment [17] and in [18] was > 100 µM (inactive) each time.
